{"source": "patent US8889591B2", "about": "“Herbicidal compositions comprising 4-amino-3-chloro-5-fluoro-6-(4-chloro-2-fluoro-3-methoxyphenyl)pyridine-2-carboxylic acid or a derivative thereof and bromobutide, daimuron, oxaziclomefone or pyributicarb” (Dow Agrosciences LLC, priority 2012, dated 2014)", "key": {"CYPRO": {"tested_on": "CYPRO", "assay": "In-water applied greenhouse weed control, transplanted paddy rice system", "type": "in vivo, Cyperus rotundus L.", "conditions": "in-water application", "method": "Weed seeds or nutlets of the desired test plant species were planted in puddled soil (mud) prepared by mixing a shredded, non-sterilized mineral soil (50.5 percent silt, 25.5 percent clay, and 24 percent sand, with a pH of about 7.6 and an organic matter content of about 2.9 percent) and water at a 1:1 volumetric ratio. The prepared mud was dispensed in 365 mL aliquots into 16-ounce (oz.) non-perforated plastic pots with a surface area of 86.59 square centimeters (cm^2) leaving a headspace of 3 centimeters (cm) in each pot. Mud was allowed to dry overnight prior to planting or transplanting. Rice seeds were planted in Sun Gro MetroMix® 306 planting mixture, which typically has a pH of 6.0 to 6.8 and an organic matter content of about 30 percent, in plastic plug trays. Seedlings at the second or third leaf stage of growth were transplanted into 840 mL of mud contained in 32-oz. non-perforated plastic pots with a surface area of 86.59 cm^2 4 days prior to herbicide application. The paddy was created by filling the headspace of the pots with 2.5 to 3 cm of water. When required to ensure good germination and healthy plants, a fungicide treatment and/or other chemical or physical treatment was applied. The plants were grown for 4-22 days in a greenhouse with an approximate 14 h photoperiod which was maintained at about 29° C. during the day and 26° C. during the night. Nutrients were added as Osmocote® (19:6:12, N:P:K+ minor nutrients) at 2 g per 16-oz. pot and 4 g per 32-oz. pot. Water was added on a regular basis to maintain the paddy flood, and supplemental lighting was provided with overhead metal halide 1000-Watt lamps as necessary. The plants were employed for testing when they reached the first through fourth true leaf stage.\nTreatments consisted of the acid or esters of 4-amino-3-chloro-5-fluoro-6-(4-chloro-2-fluoro-3-methoxy-phenyl)pyridine-2-carboxylic acid (compound A) each formulated as an SC and various herbicidal components alone and in combination. Forms of compound A were applied on an acid equivalent basis.\nOther herbicidal components were applied on an active ingredient basis and included daimuron formulated as an EC, bromobutide (technical grade material), and oxaziclomefone (technical grade material).\n(§1) Treatment requirements for each compound or herbicidal component were calculated based upon the rates being tested, the concentration of active ingredient or acid equivalent in the formulation, an application volume of 2 mL per component per pot, and an application area of 86.59 cm^2 per pot.\nFor formulated compounds, a measured amount was placed in an individual 100 or 200 mL glass vial and was dissolved in a volume of 1.25% (v/v) Agri-Dex® crop oil concentrate to obtain application solutions.\nFor technical grade compounds, a weighed amount was placed in an individual 100 to 200 mL glass vial and was dissolved in a volume of acetone to obtain concentrated stock solutions. […] The concentrated stock solutions obtained were diluted with an equivalent volume of an aqueous mixture containing 2.5% (v/v) crop oil concentrate so that the final application solutions contained 1.25% (v/v) crop oil concentrate.\nApplications were made by injecting, with a pipetter, appropriate amounts of the application solutions, individually and sequentially, into the aqueous layer of the paddy. Control plants were treated in the same manner with the solvent blank. Applications were made so that all treated plant material received the same concentrations of acetone and crop oil concentrate.\n(§2) The treated plants and control plants were placed in a greenhouse as described above and water was added as needed to maintain a paddy flood. After approximately 3 weeks the condition of the test plants as compared with that of the untreated plants was determined visually and scored on a scale of 0 to 100 percent where 0 corresponds to no injury or growth inhibition and 100 corresponds to complete kill. […]"}, "ECHCG": {"tested_on": "ECHCG", "assay": "In-water applied greenhouse weed control, transplanted paddy rice system", "type": "in vivo, Echinochloa crusgalli (L.) Beauv.", "conditions": "in-water application", "method": "Weed seeds or nutlets of the desired test plant species were planted in puddled soil (mud) prepared by mixing a shredded, non-sterilized mineral soil (50.5 percent silt, 25.5 percent clay, and 24 percent sand, with a pH of about 7.6 and an organic matter content of about 2.9 percent) and water at a 1:1 volumetric ratio. The prepared mud was dispensed in 365 mL aliquots into 16-ounce (oz.) non-perforated plastic pots with a surface area of 86.59 square centimeters (cm^2) leaving a headspace of 3 centimeters (cm) in each pot. Mud was allowed to dry overnight prior to planting or transplanting. Rice seeds were planted in Sun Gro MetroMix® 306 planting mixture, which typically has a pH of 6.0 to 6.8 and an organic matter content of about 30 percent, in plastic plug trays. Seedlings at the second or third leaf stage of growth were transplanted into 840 mL of mud contained in 32-oz. non-perforated plastic pots with a surface area of 86.59 cm^2 4 days prior to herbicide application. The paddy was created by filling the headspace of the pots with 2.5 to 3 cm of water. […]\nas §1\nFor formulated compounds, a measured amount was placed in an individual 100 or 200 mL glass vial and was dissolved in a volume of 1.25% (v/v) Agri-Dex® crop oil concentrate to obtain application solutions. […]\nas §2"}, "[1]": {"conditions": "Compound A Benzyl Ester 8.75 gae/ha alone"}}, "data": [{"smiles": "COc1c(Cl)ccc(-c2nc(C(=O)OCc3ccccc3)c(Cl)c(N)c2F)c1F", "note": "[Compound A Benzyl Ester]", "values": [{"measurement": "Visual Weed Control (%) - 19 DAA CYPRO Obs", "setting": "CYPRO; Compound A Benzyl Ester 8 gae/ha alone", "result": 50, "unit": "%"}, {"measurement": "Visual Weed Control (%) - 21 DAA CYPRO Obs", "setting": "CYPRO; [1]", "result": 60, "unit": "%"}, {"measurement": "Visual Weed Control (%) - 19 DAA CYPRO Obs", "setting": "CYPRO; Compound A Benzyl Ester 16 gae/ha alone", "result": 85, "unit": "%"}, {"measurement": "Visual Weed Control (%) - 19 DAA CYPRO Obs", "setting": "CYPRO; Compound A Benzyl Ester 32 gae/ha alone", "result": 90, "unit": "%"}, {"measurement": "Visual Weed Control (%) - 21 DAA ECHCG Obs", "setting": "ECHCG; Compound A Benzyl Ester 4.38 gae/ha alone", "result": 40, "unit": "%"}, {"measurement": "Visual Weed Control (%) - 21 DAA ECHCG Obs", "setting": "ECHCG; [1]", "result": 50, "unit": "%"}]}]}
